Data published in patent US20130295179A1, “NOVEL OMEGA-3 AND OMEGA-6 FATTY ACID COMPOSITIONS AND USES THEREOF” (priority 2010, published 2013).
“And” between values parts separate entries of the source, which are not always exact repeats. Equal values may be shown once.

Assays:
Type in all cases: in vivo, human
[1] = tested on: children between 6 and 12 years of age with a newly diagnosed ADHD; test: Continuity in the study, withdrawals and MTP dose needed, randomized pilot trial (Example 7); conditions: 12 months, n = 30 per group
Protocol: The trial was performed at the Neurology Department of the Hospital Infantil de México Federico Gomez (Health National Institute for children's in Mexico) as a randomized pilot trial. Three treatment groups were compared: group A: MTP; group B: Omega 3/6; group C: MTP+Omega 3/6. Subjects were randomized to one of these groups after screening. After inclusion to the trial, the subjects underwent three different trial periods: the 4 weeks titration period (only for the group A and group C in relation to the MTP), the 12 months evaluation period and the 6 months follow up period (FIG. 1) […]
The stimulant used in this trial was short or long acting methylphenidate (hereafter termed MTP). The daily dose was calculated to start at a concentration of 0.5 mg/kg/day to reach a maximum of 1 mg/kg/day depending on the response and the tolerance. […]
For clinically meaningful response, definition of clinical trials with ADHD medications was used, that is: a reduction of at least 25% of the symptoms scores on the ADHD-RS scale. […] The overall clinical impression of symptom severity and functional impairment was measured with the CGI severity scale, which is a clinician rating of the patient's symptom severity related to the clinician's total experience with ADHD patients. […]

[2] = tested on: children between 6 and 12 years of age with a newly diagnosed ADHD; test: Clinical Global Impression (CGI) severity, randomized pilot trial (Example 7)
Protocol: (§1) The trial was performed at the Neurology Department of the Hospital Infantil de México Federico Gomez (Health National Institute for children's in Mexico) as a randomized pilot trial. Three treatment groups were compared: group A: MTP; group B: Omega 3/6; group C: MTP+Omega 3/6. Subjects were randomized to one of these groups after screening. After inclusion to the trial, the subjects underwent three different trial periods: the 4 weeks titration period (only for the group A and group C in relation to the MTP), the 12 months evaluation period and the 6 months follow up period (FIG. 1)
(§2) A total of 107 children between 6 and 12 years of age with a newly diagnosed ADHD entered the screening phase of the trial. The presence of any previous ADHD treatment was an exclusion criterion. 17 children were screening failures and could not be included to the trial. After written informed consent by the parents or tutors of the children, a total of 90 patients were distributed to the three groups following a randomization to the three groups against a set of arbitrary numbers.
(§3) The omega-3/omega6 fatty acid supplement was used. The daily dosage of this omega 3/6 was of three capsules twice daily, corresponding to a daily dose of 558 mg EPA, 174 mg DHA and 60 mg gamma-linolenic. This specific product was chosen because it was the product and the daily dosage used in three previous clinical studies showing significant positive improvements on ADHD related symptoms without showing significant adverse events.
(§4) The stimulant used in this trial was short or long acting methylphenidate (hereafter termed MTP). The daily dose was calculated to start at a concentration of 0.5 mg/kg/day to reach a maximum of 1 mg/kg/day depending on the response and the tolerance. The doses were adjusted weekly.
(§5) Clinical assessments were made at four time points: at baseline, after 3 months, after 6 months and after 12 months. The study consisted in six stages with a total of 12 visits including the screening visit (screening visit 0) and the period of selection and titration of the medication in the case of the group A & C (first 4 weeks). At baseline all the included patients were newly diagnosed with ADHD being drug-naïve (no previous treatment with omega 3/6, MTP or atomoxetine was permitted). ADHD diagnosis was made for patients who met DMS-IV criteria of any subtype and by using the ADHD-RS-VE (Spanish version) and the CEAL (Latin American scale for ADHD). The presence of any associated condition (comorbidity) was assessed by clinical interview according to DSM-IV criteria. The investigator made a medical evaluation, including weight, height, cephalic perimeter, neurological evaluation, sleep patrons and other comorbidities. A questionnaire for the symptoms of fatty acids deficiency was applied, where 0 means without symptoms and 3 with a high degree of symptoms. We analyzed blood samples for biometry hematic and hepatic function.
(§6) For clinically meaningful response, definition of clinical trials with ADHD medications was used, that is: a reduction of at least 25% of the symptoms scores on the ADHD-RS scale. The other important variable was the permanence time in the study measuring efficacy and tolerability. The overall clinical impression of symptom severity and functional impairment was measured with the CGI severity scale, which is a clinician rating of the patient's symptom severity related to the clinician's total experience with ADHD patients. […]

[3] = tested on: children between 6 and 12 years of age with a newly diagnosed ADHD; test: Side effects / adverse events, randomized pilot trial (Example 7)
Protocol: as §1, §2, §3, §4
The patients was evaluated at baseline including a physical examination, including height and weight, pulse and blood pressure, a neuromotor examination and assessment of the general level of functioning with CGI. We evaluated each week for the first four weeks and each month for a year. The adverse events (AE) were evaluated at any clinic event appointed by the parents and with an impact over the patients, independently if it was associated or not with the medication. This includes exacerbation of the preexistence symptoms. It was important to note the moment of these AE.

[4] = tested on: Newly diagnosed ADHD children; test: RCT of omega-3/6 alone or in combination with methylphenidate, one year follow-up (Example 6); conditions: evaluated by the parents
Protocol: Newly diagnosed ADHD children of both genders, 6 to 12 years old, were included in a RCT with one year follow-up in a 3-arm design (A: Omega-3/6; B: Omega 3/6+MTP; and C: MTP). The omega-3/6 fatty acid dosage used was EPA/DHA/GLA (9:3:1) in a total of 792 mg/day (Equazen™). MTP was prescribed in a dosage of 1 mg/kg/day (titration).
The ADHD diagnosis and follow up were made using the Diagnostic and Statistical Manual of Mental Disorders fourth edition (DSM-IV) scale, the ADHD Rating Scale Spanish version (ADHD-RS-VE), and the CEAL (Latin-American scale for ADHD) and overall clinical impression (CGI). For clinically meaningful response, a reduction of at least 25% of the symptoms was used. The adverse events (AE) were evaluated by the parents based on the impact on the patients.

[5] = tested on: children between 6 and 12 years of age with a newly diagnosed ADHD; test: ADHD Rating Scale Spanish version (parent ADHD-RS-SV), randomized pilot trial (Example 7)
Protocol: as §1, §2
Inclusion criteria: Patients from 6 to 12 years old, diagnosed as having attention-deficit hyperactivity disorder by the DSM-IV, agreement to take part in the survey (letter of informed consent signed by the parent or tutor and letter of acknowledgement). Exclusion criteria: any Axis I psychiatric diagnosis other than ADHD except oppositional defiant behaviour disorder, neurological deficit, seizures or tics; previous treatment of suitable doses of methylphenidate; patients with known hypersensitivity to omega-3.
as §3, §4, §5, §6

[6] = in % of the subjects, n = 30 per group

COC(=O)C(c1ccccc1)C1CCCCN1 (stereo not drawn) [MTP, methylphenidate]
patients who left the study because of side effects [1]: 6 patients | patients who withdrew for lack of efficacy [1]: 2 patients | CGI severity category reached after treatment ([2]; from marked/severe before the treatment): mild/moderate | investigator rated CGI, baseline ([2]; scale 1 (normal) to 7, baseline mean): 6.30±0.65 | investigator rated CGI, first treatment month ([2]; scale 1 to 7, 1 month): 3.67±1.21 | investigator rated CGI severity at 3 months ([2]; scale 1 to 7, 3 months): 4.42±1.02 | investigator rated CGI severity at 6 months ([2]; scale 1 to 7, 6 months): 3.75±0.44 and 3.90±0.45 | Headache [3, 6]: 23.3% | Hiporexia [3, 6]: 53.3% | Irritability [3, 6]: 16.7% | Pallor [3, 6]: 16.7% | Palpitation [3, 6]: 13.3% | Seasickness [3, 6]: 1.0% | Sleeplessness [3, 6]: 6.7% | Tension [3, 6]: 16.7% | Tics [3, 6]: 6.7% | Tremor [3, 6]: 1.0% | hyporexia, number of patients ([3]; of 30 per group): 16 patients | most frequent AE [4]: weight reduction, hyporexia, and anxiety | ADHD RS total score after one month ([5]; after one month treatment): 27.6±4.97 | response of the hyperactivity symptom ([5]; comparison of the three treatments): greater impact | ADHD RS, total score, After 3 months ([5]; mean, after 3 months): 25.29 ± 4.18 | Hyperactive/impulsive subscale, After 3 months ([5]; mean, after 3 months): 13.25±3.05 | Inattentive subscale, After 3 months ([5]; mean, after 3 months): 12.04±1.78 | ADHD RS, total score, After 12 months ([5]; mean, after 12 months): 23.55 ± 1.72 | Hyperactive/impulsive subscale, After 12 months ([5]; mean, after 12 months): 12.1±1.29 | Inattentive subscale, After 12 months ([5]; mean, after 12 months): 11.45±1.32 | ADHD RS, total score, Baseline ([5]; mean, baseline): 41.43±4.32 and 41.43 ± 4.39 | Hyperactive/impulsive subscale, Baseline ([5]; mean, baseline): 19.93±5.11 | Inattentive subscale, Baseline ([5]; mean, baseline): 21.47±3.20
